Data reported in publication PMC2724674 (Cancer research, 2009).

Target: VEGF receptor 2 kinase (VEGFR2, KDR/Flk-1) (Homo sapiens, UniProt P35968)
Test: in vitro kinase assay
Type: biochemical

Chain of VEGF receptor 2 kinase (VEGFR2, KDR/Flk-1) (P35968 20-1356): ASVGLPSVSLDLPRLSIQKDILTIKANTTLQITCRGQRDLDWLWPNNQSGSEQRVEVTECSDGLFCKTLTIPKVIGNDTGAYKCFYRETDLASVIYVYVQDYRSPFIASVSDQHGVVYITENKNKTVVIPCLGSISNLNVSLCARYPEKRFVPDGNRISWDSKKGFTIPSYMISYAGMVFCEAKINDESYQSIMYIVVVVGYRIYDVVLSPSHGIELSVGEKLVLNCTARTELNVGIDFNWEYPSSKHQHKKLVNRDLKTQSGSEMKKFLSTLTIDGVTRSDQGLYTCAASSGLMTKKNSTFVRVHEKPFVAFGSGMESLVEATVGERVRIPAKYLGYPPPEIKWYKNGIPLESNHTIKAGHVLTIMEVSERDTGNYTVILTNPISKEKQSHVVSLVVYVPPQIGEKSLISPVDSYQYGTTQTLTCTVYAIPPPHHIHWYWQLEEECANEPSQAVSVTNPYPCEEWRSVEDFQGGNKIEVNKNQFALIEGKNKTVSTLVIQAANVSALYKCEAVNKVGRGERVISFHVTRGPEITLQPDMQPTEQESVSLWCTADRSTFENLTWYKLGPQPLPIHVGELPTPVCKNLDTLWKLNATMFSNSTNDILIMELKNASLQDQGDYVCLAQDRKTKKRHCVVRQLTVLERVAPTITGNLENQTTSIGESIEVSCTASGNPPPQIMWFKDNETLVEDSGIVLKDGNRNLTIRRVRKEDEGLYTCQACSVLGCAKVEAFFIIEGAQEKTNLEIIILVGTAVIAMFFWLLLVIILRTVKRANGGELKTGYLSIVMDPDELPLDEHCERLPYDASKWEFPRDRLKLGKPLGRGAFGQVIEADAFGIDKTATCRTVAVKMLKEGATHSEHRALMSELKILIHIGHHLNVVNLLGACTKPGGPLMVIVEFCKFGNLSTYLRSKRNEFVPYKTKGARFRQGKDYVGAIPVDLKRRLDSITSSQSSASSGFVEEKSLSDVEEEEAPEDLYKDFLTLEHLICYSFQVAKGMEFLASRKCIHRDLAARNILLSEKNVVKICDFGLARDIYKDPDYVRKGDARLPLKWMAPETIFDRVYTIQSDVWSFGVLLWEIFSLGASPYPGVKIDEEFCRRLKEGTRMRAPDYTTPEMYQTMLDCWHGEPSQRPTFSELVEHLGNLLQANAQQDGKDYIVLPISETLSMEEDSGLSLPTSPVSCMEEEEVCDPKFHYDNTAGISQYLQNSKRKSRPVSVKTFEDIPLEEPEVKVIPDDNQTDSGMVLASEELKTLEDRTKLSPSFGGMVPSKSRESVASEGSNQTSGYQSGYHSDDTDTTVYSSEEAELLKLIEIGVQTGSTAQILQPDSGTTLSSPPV

Question: How did the IC50 turn out when `CC(=O)O[C@@H]1CC[C@@]2(C)[C@@H](CC[C@]3(C)[C@@H]2C(=O)C=C2[C@@H]4[C@@H](C)[C@H](C)CC[C@]4(C)CC[C@]23C)[C@@]1(C)C(=O)O` [AKBA] was run?
Answer: The IC50 was 1680 nM.
